Holding throughout (test): 50% growth inhibitory concentration (IC50) determination assay
What all share (assay type): cell-based
Conditions in all cases: Iso-Sensitest broth, 0.098 = detection limit

In test [1] the test system is S. aureus (ATCC29213). The method, then:
(§1) Stock compounds in DMSO were serially two-fold diluted (range from 50 to 0.097 μM final concentration) in 384 wells microtiter plates and inoculated with 49 μL the bacterial suspension in Iso-Sensitest broth medium to have a final cell concentration of ˜5×10^5 CFU/mL in a final volume/well of 50 μL/well. Microtiter plates were incubated at 35±2° C. Bacterial cell growth was determined with the measurement of optical density at λ=600 nm each 20 minutes over a time course of 16 h. […] GP-6 (Example 4.131 disclosed in WO 2012/125746 A1) was used as the reference compound in Table 6-8. […] The data of IC50 over S. aureus (ATCC29213), K. pneumoniae (ATCC10031), and A. baumannii (ATCC17978) are illustrated in Table 6.

Test [2] deals with K. pneumoniae (ATCC10031). The method, then:
as §1

The test system of test [3] is A. baumannii (ATCC17978). The method, then: as §1
[4] abbreviates: Acinetobacter baumannii, ATCC17978, A. baumannii ATCC17978.

Regarding `CNc1cc(F)c(F)c2c1[nH]c1ncc(-c3cnc4c(c3)c(=O)c(C(=O)O)cn4NC)c(N3CCC4(CCCN4C)C3)c12` (stereo not drawn) [Example 1.240], the IC50 (as a rule, the concentration needed to halve the response being measured) is under 0.098 µM in test [1] (Staphylococcus aureus), under 0.098 µM in test [2] (Klebsiella pneumoniae) and 0.151 µM in test [3] (setting [4]).
For `CNc1cc(F)cc2c1[nH]c1ncc(-c3cnc4c(c3)c(=O)c(C(=O)O)cn4NC)c(N3CC4[C@H](CCN4C)C3)c12` (stereo partly drawn) [Example 1.210], the IC50 in test [1] (Staphylococcus aureus), in test [2] (Klebsiella pneumoniae) and in test [3] (setting [4]) was under 0.098 µM throughout.
In the case of `CNc1cc(F)c(F)c2c1[nH]c1ncc(-c3cnc4c(c3)c(=O)c(C(=O)O)cn4Cc3cnco3)c(N(C)C)c12` [Example 1.87], the IC50 in test [1] (Staphylococcus aureus) is under 0.098 µM; in test [2] (Klebsiella pneumoniae), 0.122 µM; in test [3] (setting [4]), 0.49 µM.
Taken in the same sequence, the figures for `CNc1cc(F)c(F)c2c1[nH]c1ncc(-c3cnc4c(c3)c(=O)c(C(=O)O)cn4C)c(N3CC(CN(C)C)C(F)(F)C3)c12` (stereo not drawn) [Example 1.143] were under 0.098 µM, under 0.098 µM and 0.109 µM.
As for `CNc1cc(F)c(F)c2c1[nH]c1ncc(-c3cnc4c(c3)c(=O)c(C(=O)O)cn4C)c(N3CC[C@@]4(CN(C)CCO4)C3)c12` [Example 3.16A], the IC50 was under 0.098 µM in test [1] (Staphylococcus aureus), under 0.098 µM in test [2] (Klebsiella pneumoniae) and 0.161 µM in test [3] (setting [4]).
Regarding `CNc1cc(F)c(F)c2c1[nH]c1ncc(-c3cnc4c(c3)c(=O)c(C(=O)O)cn4[C@@H](C)CO)c(N3CCO[C@@H](C)C3)c12` [Example 1.250], the values for the IC50 in test [1] (Staphylococcus aureus), in test [2] (Klebsiella pneumoniae) and in test [3] (setting [4]) were under 0.098 µM, 0.14 µM and 0.476 µM, respectively.
Taken in the same sequence, the figures for `CNc1cc(F)c(F)c2c1[nH]c1ncc(-c3cnc4c(c3)c(=O)c(C(=O)O)cn4C)c(N3CCO[C@H](CN(C)C)C3)c12` [Example 4.02A, (R)-6-(4-(2-((dimethylamino)methyl)morpholino)-5,6-difluoro-8-(methylamino)-9H-pyrido[2,3-b]indol-3-yl)-1-methyl-4-oxo-1,4-dihydro-1,8-naphthyridine-3-carboxylic acid] were 0.197 µM, under 0.098 µM and 0.437 µM.
The like results for `CNc1cc(F)c(F)c2c1[nH]c1ncc(-c3cnc4c(c3)c(=O)c(C(=O)O)cn4N(C)C)c(N3CCOCC3)c12` [Example 1.180] were, in that order, under 0.098 µM, 0.112 µM and 0.353 µM.
The like results for `CNc1cc(F)c(F)c2c1[nH]c1ncc(-c3cnc4c(c3)c(=O)c(C(=O)O)cn4C)c(N3CCNC(C(F)(F)F)C3)c12` (stereo not drawn) [Example 1.09] were, in that order, under 0.098 µM, 0.104 µM and 0.818 µM.
On to `CNc1cc(F)c(F)c2c1[nH]c1ncc(-c3cnc4c(c3)c(=O)c(C(=O)O)cn4C)c(N3CCO[C@@H](C)C3)c12` [Example 1.36], for which the results for the IC50 in test [1] (Staphylococcus aureus), in test [2] (Klebsiella pneumoniae) and in test [3] (setting [4]) were under 0.098 µM, under 0.098 µM and 0.147 µM, respectively.
`CNc1cc(F)c(F)c2c1[nH]c1ncc(-c3cnc4c(c3)c(=O)c(C(=O)O)cn4NC3CCOCC3)c(N(C)C)c12` [Example 1.91]: the IC50 in test [1] (Staphylococcus aureus) was under 0.098 µM; in test [2] (Klebsiella pneumoniae) it was 0.165 µM; in test [3] (setting [4]) it was 0.237 µM.
Taken in the same sequence, the figures for `CNc1cc(F)cc2c1[nH]c1ncc(-c3cnc4c(c3)c(=O)c(C(=O)O)cn4C)c(N3CCC(CN(C)C4CC4)C3)c12` (stereo not drawn) [Example 1.99] were under 0.098 µM, under 0.098 µM and 0.771 µM.
The like results for `CNc1cc(F)c(F)c2c1[nH]c1ncc(-c3cnc4c(c3)c(=O)c(C(=O)O)cn4C)c(N3CC4[C@H](CC[C@H]4CN(C)C)C3)c12` (stereo partly drawn) [Example 1.218] were, in that order, under 0.098 µM, under 0.098 µM and 0.497 µM.
The like results for `CNc1cc(F)c(Cl)c2c1[nH]c1ncc(-c3cnc4c(c3)c(=O)c(C(=O)O)cn4C)c(N3CC[C@H]4CN(C)CC43)c12` (stereo partly drawn) [Example 1.270] were, in that order, under 0.098 µM, under 0.098 µM and 0.048 µM.
Regarding `CNc1cc(F)c(F)c2c1[nH]c1ncc(-c3cnc4c(c3)c(=O)c(C(=O)O)cn4NC)c(N3CC[C@H]4CCN(C)C4C3)c12` (stereo partly drawn) [Example 1.199], the figures for the IC50 in test [1] (Staphylococcus aureus), in test [2] (Klebsiella pneumoniae) and in test [3] (setting [4]) were under 0.098 µM, under 0.098 µM and 0.151 µM, respectively.
As for `CNc1cc(F)c(F)c2c1[nH]c1ncc(-c3cnc4c(c3)c(=O)c(C(=O)O)cn4C)c(N3C[C@H](C)[C@@H](N(C)C)C3)c12` [Example 1.167], the IC50 in test [1] is under 0.098 µM; in test [2], under 0.098 µM; in test [3] (A. baumannii ATCC17978) it was 0.143 µM.
In the case of `CNc1cc(F)c(F)c2c1[nH]c1ncc(-c3cnc4c(c3)c(=O)c(C(=O)O)cn4C)c(N3CCOCC3)c12` [Example 1.08], the figures for the IC50 in test [1] (Staphylococcus aureus), in test [2] (Klebsiella pneumoniae) and in test [3] (setting [4]) were under 0.098 µM, under 0.098 µM and 0.155 µM, respectively.
For the compound `CNc1cc(F)c(F)c2c1[nH]c1ncc(-c3cnc4c(c3)c(=O)c(C(=O)O)cn4C)c(N3CC[C@@H](CN4CCOCC4)C3)c12` [Example 1.174], the results for the IC50 in test [1] (Staphylococcus aureus), in test [2] (Klebsiella pneumoniae) and in test [3] (setting [4]) were under 0.098 µM, 0.224 µM and 0.784 µM, respectively.
The like results for `CNc1cc(Cl)cc2c1[nH]c1ncc(-c3cnc4c(c3)c(=O)c(C(=O)O)cn4C)c(N3C[C@@H]4CCN(C)[C@@H]4C3)c12` [Example 3.15B] were, in that order, under 0.098 µM, under 0.098 µM and 0.094 µM.
The like results for `CNc1c(F)cc(F)c2c1[nH]c1ncc(-c3cnc4c(c3)c(=O)c(C(=O)O)cn4C3CCNC3)c(N(C)C)c12` (stereo not drawn) [Example 1.107] were, in that order, 0.189 µM, under 0.098 µM and 0.699 µM.
Taken in the same sequence, the figures for `CNc1cc(F)c(F)c2c1[nH]c1ncc(-c3cnc4c(c3)c(=O)c(C(=O)O)cn4CC3CCCO3)c(N3CCOCC3)c12` (stereo not drawn) [Example 1.39] were under 0.098 µM, 0.19 µM and 0.363 µM.
Consider `CNc1c(F)cc(F)c2c1[nH]c1ncc(-c3cnc4c(c3)c(=O)c(C(=O)O)cn4C)c(N3CCOCC3)c12` [Example 1.105], for which the IC50 in test [1] (Staphylococcus aureus) is 5.22 µM; in test [2] (Klebsiella pneumoniae), under 0.098 µM; in test [3] (setting [4]), 0.216 µM.
The like results for `CNc1cc(F)cc2c1[nH]c1ncc(-c3cnc4c(c3)c(=O)c(C(=O)O)cn4C)c(N3CCC(NC4CC4)C3)c12` (stereo not drawn) [Example 1.114] were, in that order, under 0.098 µM, under 0.098 µM and 0.103 µM.
Regarding `CNc1cc(F)c(F)c2c1[nH]c1ncc(-c3cnc4c(c3)c(=O)c(C(=O)O)cn4C3CCN(C)C3)c(N3CCC(F)(F)C3)c12` (stereo not drawn) [Example 2.03], the IC50 was under 0.098 µM in test [1] (Staphylococcus aureus), under 0.098 µM in test [2] (Klebsiella pneumoniae) and 0.562 µM in test [3] (setting [4]).
As for `CNc1cc(F)c(F)c2c1[nH]c1ncc(-c3cnc4c(c3)c(=O)c(C(=O)O)cn4C3CCNC3)c(N3CCCC3)c12` (stereo not drawn) [Example 1.65], the IC50 was under 0.098 µM in test [1] (Staphylococcus aureus), under 0.098 µM in test [2] (Klebsiella pneumoniae) and 0.378 µM in test [3] (setting [4]).
For `CNc1cc(F)c(F)c2c1[nH]c1ncc(-c3cnc4c(c3)c(=O)c(C(=O)O)cn4CCN3CCN(C)CC3)c(N(C)C)c12` [Example 1.29], the IC50 in test [1] (Staphylococcus aureus) is under 0.098 µM; in test [2] (Klebsiella pneumoniae), under 0.098 µM; in test [3] (setting [4]), 0.405 µM.
Consider `CNc1cc(F)cc2c1[nH]c1ncc(-c3cnc4c(c3)c(=O)c(C(=O)O)cn4C)c(N3CCC(F)(F)C3)c12` [Example 1.16], for which the IC50 was under 0.098 µM in test [1] (Staphylococcus aureus), under 0.098 µM in test [2] (Klebsiella pneumoniae) and 0.308 µM in test [3] (setting [4]).
For `CNc1cc(F)c(F)c2c1[nH]c1ncc(-c3cnc4c(c3)c(=O)c(C(=O)O)cn4CCN(C)C)c(N3CCC(F)(F)C3)c12` [Example 2.02], the IC50 in test [1] (Staphylococcus aureus) was under 0.098 µM; in test [2] (Klebsiella pneumoniae), 0.167 µM; in test [3] (setting [4]), 0.992 µM.
Taken in the same sequence, the figures for `CNc1cc(F)c(F)c2c1[nH]c1ncc(-c3cnc4c(c3)c(=O)c(C(=O)O)cn4C)c(N3C[C@H]4OCCN(C)[C@H]4C3)c12` [Example 3.14A] were under 0.098 µM, under 0.098 µM and 0.075 µM.
The like results for `CNc1cc(F)c(F)c2c1[nH]c1ncc(-c3cnc4c(c3)c(=O)c(C(=O)O)cn4C)c(N3C[C@@H]4OCCN(C)[C@H]4C3)c12` [Example 3.24A] were, in that order, under 0.098 µM, under 0.098 µM and 0.315 µM.
Taken in the same sequence, the figures for `CNc1cc(F)c(F)c2c1[nH]c1ncc(-c3cnc4c(c3)c(=O)c(C(=O)O)cn4C)c(N(C)CCOC)c12` [Example 1.33] were under 0.098 µM, under 0.098 µM and 0.252 µM.
With `CNc1cc(F)cc2c1[nH]c1ncc(-c3cnc4c(c3)c(=O)c(C(=O)O)cn4C)c(N3CC4[C@@H](C3)OCCN4C)c12` (stereo partly drawn) [Example 1.112], the IC50 was under 0.098 µM in test [1] (Staphylococcus aureus), under 0.098 µM in test [2] (Klebsiella pneumoniae) and 0.334 µM in test [3] (setting [4]).
`CNc1cc(F)cc2c1[nH]c1ncc(-c3cnc4c(c3)c(=O)c(C(=O)O)cn4C)c(N3CCO[C@@H](C)C3)c12` [Example 1.50]: the values for the IC50 in test [1] (Staphylococcus aureus), in test [2] (Klebsiella pneumoniae) and in test [3] (setting [4]) were under 0.098 µM, under 0.098 µM and 0.112 µM, respectively.
Take `CNc1cc(F)cc2c1[nH]c1ncc(-c3cnc4c(c3)c(=O)c(C(=O)O)cn4C3CCN(C)C3)c(N3CCOCC3)c12` (stereo not drawn) [Example 1.81]: the IC50 in test [1] (Staphylococcus aureus) was under 0.098 µM; in test [2] (Klebsiella pneumoniae), under 0.098 µM; in test [3] (setting [4]), 0.164 µM.
